Our source for the IC50 values is patent US5834463A, “Condensed heterocyclic compounds, their production and use” (Takeda Chemical Industries, Ltd., priority 1994, dated 1998).

For orientation: IC50 means the concentration at which inhibition is half-maximal.

The assay has as its target T1, human GnRH receptor (Homo sapiens, UniProt P30968).
T1 construct: expressed in transfected cells; host or cells: CHO (Chinese Hamster Ovary) cells, membrane fraction
T1 sequence (P30968 1-328): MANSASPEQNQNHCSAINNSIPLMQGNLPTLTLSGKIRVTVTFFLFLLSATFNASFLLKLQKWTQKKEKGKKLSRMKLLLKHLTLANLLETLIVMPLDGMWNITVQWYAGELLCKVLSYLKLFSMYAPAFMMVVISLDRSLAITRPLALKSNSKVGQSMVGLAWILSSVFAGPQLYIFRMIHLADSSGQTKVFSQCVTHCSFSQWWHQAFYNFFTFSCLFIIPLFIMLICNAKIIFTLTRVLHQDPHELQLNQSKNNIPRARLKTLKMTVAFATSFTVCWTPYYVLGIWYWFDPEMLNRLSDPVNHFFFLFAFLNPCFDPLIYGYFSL
The experiment in a line: Test for inhibition of ^125 I-leuprorelin binding to human GnRH receptor. To be noted: membrane fraction of CHO cells expressing human GnRH receptors, 25° C., 60 minutes, read-out: Binding Inhibitory Activity (IC50, μM) for human GnRH receptor. On the procedure:
(A) Preparation of ^125 I-leuprorelin
Ten μl of a 3×10^-4 M aqueous solution of leuprorelin and 10μl of 0.01 mg/ml lactoperoxidase in 0.1M Hepes buffer (pH7.4) were put in a tube, to which was added 10 μl of an Na^125 I solution (37 MBq). The mixture was stirred, to which was added 10 μl of 0.001% H2 O2, followed by allowing the reaction to proceed for 20 minutes at room temperature. To the reaction mixture was added 700 μl of a 0.05% TFA solution to stop the reaction. The product of was purified by means of a reverse-phase HPLC. Conditions of HPLC were as follows:
(D) Preparation of membrane fraction of CHO (Chinese Hamster Ovary) cells containing human GnRH receptors
CHO cells (10^9) expressing human GnRH receptors were suspended in a phosphate-buffered saline supplemented with 5 mM EDTA. The suspension was subjected to centrifugal separation for 5 minutes at 100×g. To the pellet of cells was added 10 ml of a homogenate buffer for cells (10 mM NaHCO3, 5 mM EDTA, pH 7.5), which was homogenated by using a Polytron homogenizer. Centrifugal separation was conducted for 15 minutes at 400×g. The supernatant was taken into an ultracentrifugal tube, which was subjected to centrifuge for one hour at 100,000×g to give precipitate of the membrane fraction. The precipitate was suspended in 2 ml of the assay buffer, which was centrifuged for one hour at 100,000×g. The membrane fraction recovered as precipitate was again suspended in 20 ml of the assay buffer, which was distributed to vials and stored at -80° C. until used.
(E) Determination of inhibitory rate of ^125 I-leuprorelin binding
In the cases of using rat and human pituitary membrane fractions prepared in (B) and (D), they were respectively diluted with the assay buffer to 200 μg/ml and 188 μl each was distributed to tubes. In the case of using bovine pituitary membrane fraction prepared in (C), it was diluted with the assay buffer to 750 μg/ml and 188 μl each was distributed into tubes. In the case where the membrane fraction of anterior lobes of rat pituitary gland was used, 2 μl of a 0.1 mM compound dissolved in 60% DMSO (dimethylsulfoxide) and 10 μl of 38 nM ^125 I-leuprorelin were added thereto simultaneously. In the case where the membrane fraction of anterior lobes of bovine pituitary gland and the membrane fraction derived from the CHO cells expressing human GnRH receptors were used, 2 μl of a 2 mM compound dissolved in 60% DMSO and 10 μl of 38 nM ^125 I-leuproprelin were added simultaneously. For determining the maximum binding amount, a solution for reaction supplemented with 2 μl of 60% DMSO and 10 μl of 38 nM ^125 I-leuprorelin was prepared. And, for determining the amount of non-specific binding, a solution for reaction supplemented with 2 μl of 100 μM leuprorelin dissolved in 60% DMSO and 10 μl of 38 nM ^125 I-leuprorelin were also prepared simultaneously.
In the cases where membrane fractions of anterior lobes of rat and bovine pituitary were used, reaction was allowed to proceed at 4° C. for 90 minutes, while in the case where the membrane fraction derived from the CHO cells expressing human GnRH receptor was used, reaction was allowed to proceed at 25° C. for 60 minutes. The reaction mixtures were respectively subjected to filtration under sucking with Whatman glass filter (GF-F) processed with polyethyleneimine. After completing the filtration, radioactivity of the ^125 I-leuprorelin remaining on the filter paper was measured with a γ-counter.
By calculation of (TB-SB)/(TB-NSB)×100 (SB: radioactivity obtained when a compound was added, TB: radioactivity for the maximum binding, NSB: radioactivity for the non-specific binding), the binding inhibitory rate of each test compound was determined. Besides, the inhibitory rates were determined by changing the concentrations of test compounds, and the concentration of a test compound inhibiting the specific binding by 50% (IC50 value) was calculated by way of Hill plot.
Regarding `O=C1c2ccc([N+](=O)[O-])cc2C(=O)N1CC(=O)N1c2ccccc2N(Cc2ccccc2)C(=O)[C@H]2CCC[C@H]21` (relative stereo) [compound 49], the IC50 is 2 µM.

With `O=C1c2ccccc2C(=O)N1CCC(=O)N1c2ccccc2N(Cc2ccccc2)C(=O)[C@H]2CCC[C@H]21` (relative stereo) [compound 50], the IC50 amounted to 24 µM.

Regarding `O=C1c2ccccc2C(=O)N1CCCC(=O)N1c2ccccc2N(Cc2ccccc2)C(=O)[C@H]2CCC[C@H]21` (relative stereo) [compound 51], the half-inhibitory concentration (IC50) is 12 µM.

For the compound `O=C1c2ccc(Cl)cc2C(=O)N1CC(=O)N1c2ccccc2N(Cc2ccccc2)C(=O)[C@H]2CCC[C@H]21` (relative stereo) [compound 69], the IC50 amounted to 2 µM.

With `O=C1c2ccc(F)cc2C(=O)N1CC(=O)N1c2ccccc2N(Cc2ccccc2)C(=O)[C@H]2CCC[C@H]21` (relative stereo) [compound 70], the IC50 was 2 µM.

On to `Cc1ccc2c(c1)C(=O)N(CC(=O)N1c3ccccc3N(Cc3ccccc3)C(=O)[C@H]3CCC[C@H]31)C2=O` (relative stereo) [compound 71], for which the IC50 turned out to be 9 µM.

On to `O=C1c2cccc([N+](=O)[O-])c2C(=O)N1CC(=O)N1c2ccccc2N(Cc2ccccc2)C(=O)[C@H]2CCC[C@H]21` (relative stereo) [compound 72], for which the IC50 amounted to 6 µM.

As to `O=C1c2cccc(O)c2C(=O)N1CC(=O)N1c2ccccc2N(Cc2ccccc2)C(=O)[C@H]2CCC[C@H]21` (relative stereo) [compound 73], the IC50 came to 9 µM.

For `O=C1c2cccc3cccc(c23)C(=O)N1CC(=O)N1c2ccccc2N(Cc2ccccc2)C(=O)[C@H]2CCC[C@H]21` (relative stereo) [compound 75], the 50% inhibitory concentration (IC50) is 3 µM.

On to `O=C1Cc2ccccc2C(=O)N1CC(=O)N1c2ccccc2N(Cc2ccccc2)C(=O)[C@H]2CCC[C@H]21` (relative stereo) [compound 77], for which the IC50 was 5 µM.

For `O=C1c2cccnc2C(=O)N1CC(=O)N1c2ccccc2N(Cc2ccccc2)C(=O)[C@H]2CCC[C@H]21` (relative stereo) [compound 78], the concentration for half-maximal inhibition (IC50) is 5 µM.

On to `O=C1[C@H]2CC=CC[C@H]2C(=O)N1CC(=O)N1c2ccccc2N(Cc2ccccc2)C(=O)[C@H]2CCC[C@H]21` (relative stereo) [compound 80], for which the IC50 turned out to be 9 µM.

For the compound `COc1cc(OC)cc(C(=O)NCC(=O)N2c3ccccc3N(Cc3ccccc3)C(=O)[C@H]3CCC[C@H]32)c1` (relative stereo) [compound 87], the IC50 came out at 16 µM.

As to `Nc1cccc2c1C(=O)N(CC(=O)N1c3ccccc3N(Cc3ccccc3)C(=O)[C@H]3CCC[C@H]31)C2=O` (relative stereo) [compound 106], the IC50 was determined as 5 µM.

Take `COC(=O)c1ccc2c(c1)C(=O)N(CC(=O)N1c3ccccc3N(Cc3ccccc3)C(=O)[C@H]3CCC[C@H]31)C2=O` (relative stereo) [compound 108]: the IC50 turned out to be 8 µM.

For `CC(=O)N(CC(=O)N1c2ccccc2N(Cc2ccccc2)C(=O)[C@H]2CCC[C@H]21)C(=O)c1ccccc1` (relative stereo) [compound 109], the IC50 amounted to 6 µM.

Consider `O=C1c2ccccc2C(=O)N1CC(=O)N1c2ccccc2N(Cc2cccc3ccccc23)C(=O)[C@H]2CCC[C@H]21` (relative stereo) [compound 113], for which the IC50 stood at 1 µM.

As to `O=C1c2ccccc2C(=O)N1CC(=O)N1c2ccccc2N(Cc2ccc3ccccc3c2)C(=O)[C@H]2CCC[C@H]21` (relative stereo) [compound 114], the 50% inhibitory concentration (IC50) stood at 0.6 µM.

With `O=C1c2ccccc2C(=O)N1CC(=O)N1c2ccccc2N(Cc2ccccn2)C(=O)[C@H]2CCC[C@H]21` (relative stereo) [compound 118], the IC50 stood at 2 µM.

As to `O=C1c2ccccc2C(=O)N1CC(=O)N1c2ccccc2N(Cc2cccnc2)C(=O)[C@H]2CCC[C@H]21` (relative stereo) [compound 119], the IC50 came to 10 µM.

`O=C1c2ccccc2C(=O)N1CC(=O)N1c2ccccc2N(Cc2ccncc2)C(=O)[C@H]2CCC[C@H]21` (relative stereo) [compound 120]: the IC50 was 4 µM.

Regarding `O=C1c2ccncc2C(=O)N1CC(=O)N1c2ccccc2N(Cc2ccccc2)C(=O)[C@H]2CCC[C@H]21` (relative stereo) [compound 128], the IC50 worked out at 15 µM.

Consider `O=C1Cc2ccccc2N1CC(=O)N1c2ccccc2N(Cc2ccccc2)C(=O)[C@H]2CCC[C@H]21` (relative stereo) [compound 136], for which the IC50 came out at 15 µM.

Take `O=C1[C@H]2CCC[C@H]2N(C(=O)CNCc2ccccc2)c2ccccc2N1Cc1ccccc1` (relative stereo) [compound 138]: the IC50 came out at 14 µM.

In the case of `CN(CC(=O)N1c2ccccc2N(Cc2ccccc2)C(=O)[C@H]2CCC[C@H]21)Cc1ccccc1` (relative stereo) [compound 139], the IC50 amounted to 11 µM.

Take `O=C(c1ccccc1)N(CC(=O)N1c2ccccc2N(Cc2ccccc2)C(=O)[C@H]2CCC[C@H]21)Cc1ccccc1` (relative stereo) [compound 141]: the IC50 turned out to be 14 µM.

Take `O=C1c2ccccc2C(=O)N1CC(=O)N1c2ccccc2N(Cc2ccccc2)C(=O)[C@H]2CCCC[C@H]21` (relative stereo) [compound 168]: the IC50 came to 3 µM.

Turning to `O=C1c2ccccc2C(=O)N1CC(=O)N1c2ccccc2N(Cc2ccc(Cl)cc2)C(=O)[C@H]2CCC[C@H]21` (relative stereo) [compound 169], the half-maximal inhibitory concentration (IC50) came to 2 µM.

For `O=C1C2=C(CCCC2)C(=O)N1CC(=O)N1c2ccccc2N(Cc2cccc3ccccc23)C(=O)[C@H]2CCC[C@H]21` (relative stereo) [compound 170], the IC50 was found to be 0.6 µM.

Take `O=C1C2=C(CCCC2)C(=O)N1CC(=O)N1c2ccccc2N(Cc2ccc3ccccc3c2)C(=O)[C@H]2CCC[C@H]21` (relative stereo) [compound 171]: the IC50 is 0.3 µM.

Regarding `CC1=C(C)C(=O)N(CC(=O)N2c3ccccc3N(Cc3ccccc3)C(=O)[C@H]3CCC[C@H]32)C1=O` (relative stereo) [compound 173], the 50% inhibitory concentration (IC50) came out at 7 µM.

Take `O=C1C2=C(CCC2)C(=O)N1CC(=O)N1c2ccccc2N(Cc2ccccc2)C(=O)[C@H]2CCC[C@H]21` (relative stereo) [compound 176]: the IC50 came out at 2 µM.

On to `O=C1c2ccccc2C(=O)N1CC(=O)N1c2ccccc2N(Cc2ccc(-c3ccccc3)cc2)C(=O)[C@H]2CCC[C@H]21` (relative stereo) [compound 182], for which the IC50 amounted to 2 µM.

In the case of `O=C1c2ccccc2C(=O)N1CC(=O)N1c2ccccc2N(Cc2ccc3ccccc3n2)C(=O)[C@H]2CCC[C@H]21` (relative stereo) [compound 184], the half-inhibitory concentration (IC50) amounted to 0.8 µM.

With `O=C1c2ccccc2C(=O)N1CC(=O)N1c2ccccc2N(Cc2ccc(F)cc2)C(=O)[C@H]2CCC[C@H]21` (relative stereo) [compound 191], the IC50 worked out at 2 µM.

Regarding `O=C1c2ccccc2C(=O)N1CC(=O)N1c2ccccc2N(Cc2ccccc2F)C(=O)[C@H]2CCC[C@H]21` (relative stereo) [compound 194], the IC50 came out at 3 µM.
